Read-outs that look alike come from different tables or passages of the source. Starred links: 1 amine or outer side, 2 acyl side, 3 side chain; linkers in the order of their positions; H or OH if unused. Non-standard residues stand in square brackets, D forms with d. Groups on a side chain read outwards from the residue. *: point of attachment. C20 diacid = O=C(O)CCCCCCCCCCCCCCCCCCC(=O)*; C18 diacid = O=C(O)CCCCCCCCCCCCCCCCC(=O)*; γGlu = O=C(O)[C@H](CCC(=O)[*:2])N[*:1]; AEEA = NCCOCCOCC(=O)O; Aib = CC(C)(N)C(=O)O; Ahx = NCCCCCC(=O)O
Legend:
Type in all cases: cell-based
Details in all cases: CreLuc reporter gene assay
hGLP1R = target: T1, hGLP1R (Homo sapiens, UniProt P43220); assay: hGLP1R CreLuc reporter gene assay in 0.5% and 100% plasma
T1 construct: expressed in transfected cells; host or cells: HEK-293 cells carrying a CRE-luciferase reporter gene
Outline: (§1)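 HEK-293 cells co-expressing GLP-1 or NPY2 receptor and CHO cells expressing GIP receptor, each carrying a CRE-driven luciferase reporter, were stimulated with peptides for 4 hours at 37 °C. Luminescence was read after Bright-Glo addition. EC50 came from 8-point, four-decade curves fitted by variable-slope non-linear regression.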

hGIPR = target: T2, hGIPR (Homo sapiens, UniProt P48546); assay: hGIPR CreLuc reporter gene assay in 0.5% and 100% plasma
T2 construct: expressed in transfected cells; host or cells: CHO cells carrying a CRE-luciferase reporter gene
T2 sequence (P48546 22-466): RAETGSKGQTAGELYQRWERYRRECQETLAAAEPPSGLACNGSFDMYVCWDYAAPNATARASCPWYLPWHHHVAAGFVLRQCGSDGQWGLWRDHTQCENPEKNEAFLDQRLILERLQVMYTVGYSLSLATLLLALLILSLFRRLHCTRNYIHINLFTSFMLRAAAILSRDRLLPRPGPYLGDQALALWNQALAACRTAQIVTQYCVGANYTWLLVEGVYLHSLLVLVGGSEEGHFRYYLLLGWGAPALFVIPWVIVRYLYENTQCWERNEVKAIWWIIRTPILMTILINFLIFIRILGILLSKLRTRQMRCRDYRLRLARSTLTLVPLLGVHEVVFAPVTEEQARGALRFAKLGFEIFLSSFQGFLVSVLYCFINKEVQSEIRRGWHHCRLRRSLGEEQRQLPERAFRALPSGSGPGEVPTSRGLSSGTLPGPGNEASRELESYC
Outline: as §1

hNPY2R = target: T3, hNPY2R (Homo sapiens, UniProt P49146); assay: hNPY2R CreLuc reporter gene assay in 0.5% and 100% plasma
T3 construct: expressed in transfected cells; host or cells: HEK-293 cells carrying a CRE-luciferase reporter gene
T3 sequence (P49146 1-381): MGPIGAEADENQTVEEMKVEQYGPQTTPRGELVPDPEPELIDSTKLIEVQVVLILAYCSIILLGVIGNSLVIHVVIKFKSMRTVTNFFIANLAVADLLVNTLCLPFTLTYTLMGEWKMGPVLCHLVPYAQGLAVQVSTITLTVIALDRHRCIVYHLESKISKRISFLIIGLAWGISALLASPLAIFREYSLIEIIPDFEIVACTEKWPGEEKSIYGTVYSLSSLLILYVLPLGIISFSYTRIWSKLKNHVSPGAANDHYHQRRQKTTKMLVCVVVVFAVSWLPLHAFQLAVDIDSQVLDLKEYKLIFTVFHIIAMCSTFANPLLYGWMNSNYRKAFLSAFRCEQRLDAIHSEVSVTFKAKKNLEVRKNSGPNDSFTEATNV
Outline: as §1

[1] = 0.5% human plasma, read-out: hGLP1R 0.5% hP
[2] = 0.5% human plasma, read-out: hGIPR 0.5% hP
[3] = 100% human plasma, read-out: hGIPR 100% hP
[4] = 0.5% human plasma, read-out: hNPY2R 0.5% hP
[5] = 100% human plasma, read-out: hNPY2R 100% hP
[6] = 100% human plasma, read-out: hGLP1R 100% hP

T1 sequence (P43220 24-463): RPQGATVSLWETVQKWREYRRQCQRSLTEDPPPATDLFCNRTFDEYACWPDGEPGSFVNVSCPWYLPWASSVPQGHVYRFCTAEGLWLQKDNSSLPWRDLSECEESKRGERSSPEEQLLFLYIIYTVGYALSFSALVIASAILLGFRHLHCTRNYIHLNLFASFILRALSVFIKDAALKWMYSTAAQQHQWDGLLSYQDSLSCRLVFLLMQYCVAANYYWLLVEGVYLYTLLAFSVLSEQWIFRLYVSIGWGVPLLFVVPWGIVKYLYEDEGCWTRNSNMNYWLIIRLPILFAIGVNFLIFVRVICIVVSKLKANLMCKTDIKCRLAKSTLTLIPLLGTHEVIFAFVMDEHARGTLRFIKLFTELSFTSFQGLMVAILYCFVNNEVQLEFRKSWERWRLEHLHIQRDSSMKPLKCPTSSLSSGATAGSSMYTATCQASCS

Row | Substance | EC50 (hGLP1R; [1]) [nM] | EC50 (hGIPR; [2]) [nM] | EC50 (hGIPR; [3]) [nM] | EC50 (hNPY2R; [4]) [nM] | EC50 (hNPY2R; [5]) [nM] | EC50 (hGLP1R; [6]) [nM]
1 | H-Y[Aib]EGTFTSDYSI[Aib]LEKQAQ[Aib]AFVEWLIK([AEEA-AEEA-γGlu-γGlu-γGlu-γGlu-C18 diacid])GGPEEPASLRHYYNWLTRQRY-NH2 [Compound 161, Y-Aib-E-G-T-F-T-S-D-Y-S-I-Aib-L-E-K-Q-A-Q-Aib-A-F-V-E-W-L-I-K(1,3)-GGPEEPASLRHYYNWLTRQRY-NH2.C18DA-gGlu-gGlu-gGlu-gGlu-OEG-OEG(1,2)] | 0.21 | 0.14 | 1.23 | 11.5 | 41.7 | –
2 | H-Y[Aib]EGTFTSDYSI[Aib]LEKQAQ[Aib]AFVEWLIK([AEEA-AEEA-γGlu-γGlu-γGlu-γGlu-C18 diacid])GGPESGASLRHYYNWLTRQRY-NH2 [Compound 163, Y-Aib-E-G-T-F-T-S-D-Y-S-I-Aib-L-E-K-Q-A-Q-Aib-A-F-V-E-W-L-I-K(1,3)-GGPESGASLRHYYNWLTRQRY-NH2.C18DA-gGlu-gGlu-gGlu-gGlu-OEG-OEG(1,2)] | 0.1 | 0.26 | 0.87 | 21.3 | 55.2 | –
3 | H-Y[Aib]EGTFTSDYSI[Aib]LEKQAQ[Aib]AFVEWLIK([AEEA-AEEA-γGlu-γGlu-γGlu-γGlu-C18 diacid])GGPSEPASLRHYYNWLTRQRY-NH2 [Compound 256, Y-Aib-E-G-T-F-T-S-D-Y-S-I-Aib-L-E-K-Q-A-Q-Aib-A-F-V-E-W-L-I-K(1,3)-GGPSEPASLRHYYNWLTRQRY-NH2.C18DA-gGlu-gGlu-gGlu-gGlu-OEG-OEG(1,2)] | 0.18 | 0.23 | 1.56 | 10.9 | – | –
4 | H-Y[Aib]EGTFTSDYSI[Aib]LEKQAQ[Aib]AFVEWLIK([AEEA-AEEA-γGlu-γGlu-γGlu-γGlu-C18 diacid])GGPSSGASLRHYYNWLTRQRY-NH2 [Compound 254, Y-Aib-E-G-T-F-T-S-D-Y-S-I-Aib-L-E-K-Q-A-Q-Aib-A-F-V-E-W-L-I-K(1,3)-GGPSSGASLRHYYNWLTRQRY-NH2.C18DA-gGlu-gGlu-gGlu-gGlu-OEG-OEG(1,2)] | 0.07 | 0.22 | 0.63 | 17.8 | 30.9 | 1.69
5 | H-Y[Aib]EGTFTSDYSI[Aib]LEKQAQ[Aib]AFVEWLIK([AEEA-AEEA-γGlu-γGlu-γGlu-γGlu-C18 diacid])GGPSSPASLRHYYNWLTRQRY-NH2 [Compound 158, Y-Aib-E-G-T-F-T-S-D-Y-S-I-Aib-L-E-K-Q-A-Q-Aib-A-F-V-E-W-L-I-K(1,3)-GGPSSPASLRHYYNWLTRQRY-NH2.C18DA-gGlu-gGlu-gGlu-gGlu-OEG-OEG(1,2)] | 0.09 | 0.11 | 0.84 | 15.8 | 39.9 | –
6 | H-Y[Aib]EGTFTSDYSI[Aib]LEKQAQ[Aib]AFVEWLIK([AEEA-AEEA-γGlu-γGlu-γGlu-γGlu-C20 diacid])GGPEEPASLRHYYNWLTRQRY-NH2 [Compound 206, Y-Aib-E-G-T-F-T-S-D-Y-S-I-Aib-L-E-K-Q-A-Q-Aib-A-F-V-E-W-L-I-K(1,3)-GGPEEPASLRHYYNWLTRQRY-NH2.C20DA-gGlu-gGlu-gGlu-gGlu-OEG-OEG(1,2)] | – | 0.25 | – | 13.4 | – | 17.2
7 | H-Y[Aib]EGTFTSDYSI[Aib]LEKQAQ[Aib]AFVEWLIK([AEEA-AEEA-γGlu-γGlu-γGlu-γGlu-C20 diacid])GGPSEGASLRHYYNWLTRQRY-NH2 [Compound 287, Y-Aib-E-G-T-F-T-S-D-Y-S-I-Aib-L-E-K-Q-A-Q-Aib-A-F-V-E-W-L-I-K(1,3)-GGPSEGASLRHYYNWLTRQRY-NH2.C20DA-gGlu-gGlu-gGlu-gGlu-OEG-OEG(1,2)] | 0.27 | 0.34 | – | 13.3 | 45.9 | –
8 | H-Y[Aib]EGTFTSDYSI[Aib]LEKQAQ[Aib]AFVEWLIK([AEEA-AEEA-γGlu-γGlu-γGlu-γGlu-C20 diacid])GGPSEPASLRHYYNWLTRQRY-NH2 [Compound 226, Y-Aib-E-G-T-F-T-S-D-Y-S-I-Aib-L-E-K-Q-A-Q-Aib-A-F-V-E-W-L-I-K(1,3)-GGPSEPASLRHYYNWLTRQRY-NH2.C20DA-gGlu-gGlu-gGlu-gGlu-OEG-OEG(1,2)] | 0.24 | 0.43 | – | – | 46.3 | –
9 | H-Y[Aib]EGTFTSDYSI[Aib]LEKQAQ[Aib]AFVEWLIK([AEEA-AEEA-γGlu-γGlu-γGlu-γGlu-C20 diacid])GGPSSPASLRHYYNWLTRQRY-NH2 [Compound 175, Y-Aib-E-G-T-F-T-S-D-Y-S-I-Aib-L-E-K-Q-A-Q-Aib-A-F-V-E-W-L-I-K(1,3)-GGPSSPASLRHYYNWLTRQRY-NH2.C20DA-gGlu-gGlu-gGlu-gGlu-OEG-OEG(1,2)] | 0.1 | 0.29 | 1.53 | 10.5 | 48.7 | –
10 | H-Y[Aib]EGTFTSDYSI[Aib]LEKQAQ[Aib]AFVEWLIK([AEEA-AEEA-γGlu-γGlu-γGlu-γGlu-γGlu-C18 diacid])GGPSSPASLRHYYNWLTRQRY-NH2 [Compound 140, Y-Aib-E-G-T-F-T-S-D-Y-S-I-Aib-L-E-K-Q-A-Q-Aib-A-F-V-E-W-L-I-K(1,3)-GGPSSPASLRHYYNWLTRQRY-NH2.C18DA-gGlu-gGlu-gGlu-gGlu-gGlu-OEG-OEG(1,2)] | 0.12 | 0.22 | – | 12.4 | 45.9 | 3.11
11 | H-Y[Aib]EGTFTSDYSI[Aib]LEKQAQ[Aib]AFVEWLIK([AEEA-AEEA-γGlu-γGlu-γGlu-γGlu-γGlu-C20 diacid])GGPSSGASLRHYYNWLTRQRY-NH2 [Compound 229, Y-Aib-E-G-T-F-T-S-D-Y-S-I-Aib-L-E-K-Q-A-Q-Aib-A-F-V-E-W-L-I-K(1,3)-GGPSSGASLRHYYNWLTRQRY-NH2.C20DA-gGlu-gGlu-gGlu-gGlu-gGlu-OEG-OEG(1,2)] | 0.1 | 0.22 | 1.42 | 10.8 | 27.2 | –
12 | H-Y[Aib]EGTFTSDYSI[Aib]LEKQAQ[Aib]AFVEWLIK([Ahx-γGlu-γGlu-γGlu-γGlu-γGlu-C18 diacid])GGPSSGASLRHYYNWLTRQRY-NH2 [Compound 260, Y-Aib-E-G-T-F-T-S-D-Y-S-I-Aib-L-E-K-Q-A-Q-Aib-A-F-V-E-W-L-I-K(1,3)-GGPSSGASLRHYYNWLTRQRY-NH2.C18DA-gGlu-gGlu-gGlu-gGlu-gGlu-AHX(1,2)] | 0.13 | 0.31 | – | 26.4 | – | –
13 | H-Y[Aib]EGTFTSDYSI[Aib]LEKQAQ[Aib]AFVEWLIK([Ahx-γGlu-γGlu-γGlu-γGlu-γGlu-C20 diacid])GGPSEGASLRHYYNWLTRQRY-NH2 [Compound 301, Y-Aib-E-G-T-F-T-S-D-Y-S-I-Aib-L-E-K-Q-A-Q-Aib-A-F-V-E-W-L-I-K(1,3)-GGPSEGASLRHYYNWLTRQRY-NH2.C20DA-gGlu-gGlu-gGlu-gGlu-gGlu-AHX(1,2)] | 0.23 | 0.58 | 3.27 | – | 99.3 | –
14 | H-Y[Aib]EGTFTSDYSI[Aib]LEKQAQ[Aib]AFVEWLIK([Ahx-γGlu-γGlu-γGlu-γGlu-γGlu-γGlu-C18 diacid])GGPSEGASLRHYYNWLTRQRY-NH2 [Compound 303, Y-Aib-E-G-T-F-T-S-D-Y-S-I-Aib-L-E-K-Q-A-Q-Aib-A-F-V-E-W-L-I-K(1,3)-GGPSEGASLRHYYNWLTRQRY-NH2.C18DA-gGlu-gGlu-gGlu-gGlu-gGlu-gGlu-AHX(1,2)] | 0.2 | 0.36 | – | – | 122 | –
